Measurements taken from US20090131449A1, “USE OF TRPV1 RECEPTOR ANTAGONISTS FOR TREATING DRY EYE AND OCULAR PAIN” (ALCON RESEARCH, LTD., priority 2007, published 2009).

Columns and labels:
[1] = system: mechanical blink response in normal rats; assay: corneal anesthetic activity, blinks induced by mechanical touch (Cochet-Bonnet Esthesiometer); type: in vivo, Sprague Dawley rats; settings: rat; for inhibition of mechanical blink response / topical anesthetic activity (in words): 1% concentration; for Total number of Blinks/Total number of Touches: 20 μl topical ocular, N = 6/group; for Total number of Blinks/Total number of Touches / % Blocked (mechanical blink response): pretreatment 5 min; for % Blocked (mechanical blink response): topical ocular
Text: Corneal anesthetic effects of TRPV1 antagonists were examined by analyzing suppression of blinks induced by mechanical touch. A Cochet-Bonnet Esthesiometer was used to determine corneal anesthetic activities of the TRPV1 antagonist, AMG-517 (AL-49975), in normal rats. Male Sprague Dawley rats (˜500 g) were divided into groups of 6 each, restrained in a DecapiCone rat restraint, and secured at the posterior with tape. A hole was cut into the cone to expose the right eye. Twenty-four hours prior to the experiment the eyelashes and whiskers were trimmed with scissors. The right eye was dosed with 20 μl of drug or maxidex vehicle, and the timer was set for 5 minutes to allow the rat time to acclimate. The Cochet-Bonnet Esthesiometer fiber was set at 30 mm and perpendicularly touched by a masked observer to the center of the cornea 10 times with a 3 second delay between counts. Blinks were counted with each touch of the fiber, and a total score out of 10 was recorded. If more than one blink occurred in response to a single touch, this event was counted as one blink response.

[2] = system: Formalin-Induced Blink Response in Rats; assay: formalin-induced blink response assay (ocular pain); type: in vivo, Sprague-Dawley rats; settings: rat; for Number of Blinks/1 min Mean ± S.D.: 20 μL topical ocular, 0.1% formalin challenge; for Number of Blinks/1 min Mean ± S.D. / % Inhibition of formalin-induced blink response: pretreatment 5 min; for % Inhibition of formalin-induced blink response: topical ocular; for inhibition of formalin-induced blink response (in words): highest concentration tested (1%)
Procedure: The effects of two transient receptor potential vanilloid receptor subfamily, member 1 (TRPV1) antagonists on ocular pain in rats were tested using a formalin-induced blink response assay. Sprague-Dawley rats were treated topical ocular with 20 μL of vehicle (maxidex vehicle), N-{4-[6-(4-trifluoromethyl-phenyl)-pyrimidin-4-yloxy]-benzothiazol-2-yl}-acetamide (AL-49975, also known as AMG-517, Amgen Inc., Thousand Oaks, Calif.), or (R)—N-(4-(6-(4-(1-(4-fluorophenyl)ethyl)piperazin-1-yl)pyrimidin-4-yloxy)benzo[d]thiazol-2-yl)acetamide (AL-49976, also known as AMG-628, Amgen Inc., Thousand Oaks, Calif.) to one eye only. After the appropriate pretreatment time of about 5 minutes, 5 μL of 0.1% formalin was applied topical ocular. Each rat was placed in a clear plastic box, and the number of blinks was counted for 1 minute immediately following the formalin challenge.

[3] = 1% conc., *p < 0.05 Dunnett's t-test

Row | Compound | inhibition of mechanical blink response / topical anesthetic activity (in words) [1] | inhibition of mechanical blink response / topical anesthetic activity (in words) ([1]; listed as AMG-517) | Total number of Blinks/Total number of Touches ([1]; 1%) | % Blocked (mechanical blink response) ([1]; 1%) | Number of Blinks/1 min Mean ± S.D. ([2]; 0.01% conc.) | % Inhibition of formalin-induced blink response ([2]; 0.01% conc.) | Number of Blinks/1 min Mean ± S.D. ([2]; 0.1% conc.) | % Inhibition of formalin-induced blink response ([2]; 0.1% conc.) | Number of Blinks/1 min Mean ± S.D. ([2]; 1% conc.) | % Inhibition of formalin-induced blink response [2, 3] | inhibition of formalin-induced blink response (in words) [2] | Total number of Blinks/Total number of Touches ([1]; 0.5%) | % Blocked (mechanical blink response) ([1]; 0.5%, *p < 0.01 Chi-squared vs. vehicle) | % Blocked (mechanical blink response) ([1]; 0.5%, *p < 0.01 Chi-squared vs. vehicle, listed as proparacaine)
1 | CC(=O)Nc1nc2c(Oc3cc(-c4ccc(C(F)(F)F)cc4)ncn3)cccc2s1 [AL-49975, N-{4-[6-(4-trifluoromethyl-phenyl)-pyrimidin-4-yloxy]-benzothiazol-2-yl}-acetamide] | did not significantly inhibit the blink response | did not have topical anesthetic activity | 54/60 | 10% | 58 ± 11 Blinks/1 min | 20% | 51 ± 18 Blinks/1 min | 29% | 44 ± 17 Blinks/1 min | 39* % | dose-dependent fashion, achieving significant inhibition |  |  | 
2 | CC(=O)Nc1nc2c(Oc3cc(N4CCN([C@H](C)c5ccc(F)cc5)CC4)ncn3)cccc2s1 [AL-49976, (R)—N-(4-(6-(4-(1-(4-fluorophenyl)ethyl)piperazin-1-yl)pyrimidin-4-yloxy)benzo[d]thiazol-2-yl)acetamide] |  |  |  |  | 58 ± 7 Blinks/1 min | 19% | 66 ± 23 Blinks/1 min | 9% | 47 ± 11 Blinks/1 min | 35* % | significantly inhibited the pain response |  |  | 
3 | CCCOc1ccc(C(=O)OCCN(CC)CC)cc1N [Alcaine, proparacaine, reference compound] |  |  |  |  |  |  |  |  |  |  |  | 2/60 | 97* % | 95%
